Experimental data published in ChEMBL document CHEMBL1208765, “Structure-activity relationship of lupane-triterpene glycosides from Acanthopanax koreanum on spleen lymphocyte IL-2 and IFN-gamma” (2010).

Legend:
Type in all cases: functional
Splenocyte [1] = assay: Immunomodulatory effect in mouse splenocyte assessed as increase in ConA-induced IFN-gamma release at 5 uM by lymphoproliferation test
Splenocyte [2] = assay: Immunomodulatory effect in mouse splenocyte assessed as increase in ConA-induced IFN-gamma release at 25 uM by lymphoproliferation test
Splenocyte [3] = assay: Immunomodulatory effect in mouse splenocyte assessed as increase in ConA-induced IFN-gamma release at 100 uM by lymphoproliferation test
Splenocyte [4] = assay: Immunomodulatory effect in mouse splenocyte assessed as increase in ConA-induced IL2 release at 5 uM by lymphoproliferation test
Splenocyte [5] = assay: Immunomodulatory effect in mouse splenocyte assessed as increase in ConA-induced IL2 release at 25 uM by lymphoproliferation test
Splenocyte [6] = assay: Immunomodulatory effect in mouse splenocyte assessed as increase in ConA-induced IL2 release at 100 uM by lymphoproliferation test

**Q.** How did the Activity (Splenocyte [1]) turn out when `C=C(C)[C@@H]1CC[C@]2(C(=O)O[C@@H]3O[C@H](CO[C@@H]4O[C@H](CO)[C@@H](O[C@H]5O[C@@H](C)[C@H](O)[C@@H](O)[C@H]5O)[C@H](O)[C@H]4O)[C@@H](O)[C@H](O)[C@H]3O)CC[C@]3(C)[C@H](C[C@@H](O)[C@@H]4[C@@]5(C)CC[C@@H](O)C(C)(C)[C@@H]5CC[C@]43C)C12` (stereo partly specified) [ACANTRIFOSIDE A] was run?
**A.** 4.55 pg/mL

**Q.** And the Activity (Splenocyte [2])?
**A.** 5.23 pg/mL

**Q.** What about the Activity (Splenocyte [3]) of the same compound?
**A.** 5.41 pg/mL

**Q.** What about the Activity (Splenocyte [4]) of the same compound?
**A.** 20.07 pg/mL

**Q.** And the Activity (Splenocyte [5])?
**A.** 25.57 pg/mL

**Q.** What about the Activity (Splenocyte [6]) of the same compound?
**A.** 50.66 pg/mL

**Q.** How did the Activity (Splenocyte [1]) turn out when `C=C(CO)[C@@H]1CC[C@]2(C(=O)O[C@H]3O[C@@H](CO[C@H]4O[C@@H](CO)[C@H](O[C@H]5O[C@@H](C)[C@H](O)[C@@H](O)[C@H]5O)[C@@H](O)[C@@H]4O)[C@H](O)[C@@H](O)[C@@H]3O)CC[C@]3(C)[C@H](C[C@@H](O)[C@@H]4[C@@]5(C)CC[C@@H](O)[C@@](C)(C(=O)O)[C@@H]5CC[C@]43C)[C@@H]12` [ACANKOREOSIDE M] was run?
**A.** 1.57 pg/mL

**Q.** And the Activity (Splenocyte [2])?
**A.** 2.45 pg/mL

**Q.** What about the Activity (Splenocyte [3]) of the same compound?
**A.** 2.48 pg/mL

**Q.** And the Activity (Splenocyte [4])?
**A.** 15.27 pg/mL

**Q.** What about the Activity (Splenocyte [5]) of the same compound?
**A.** 16.92 pg/mL

**Q.** What about the Activity (Splenocyte [6]) of the same compound?
**A.** 17.26 pg/mL

**Q.** Which results are given for `CC(=O)[C@@H]1CC[C@]2(C(=O)O[C@H]3O[C@@H](CO[C@H]4O[C@@H](CO)[C@H](O[C@H]5O[C@@H](C)[C@H](O)[C@@H](O)[C@H]5O)[C@@H](O)[C@@H]4O)[C@H](O)[C@@H](O)[C@@H]3O)CC[C@]3(C)[C@H](CC[C@@H]4[C@@]5(C)CC[C@@H](O)[C@@](C)(C(=O)O)[C@@H]5CC[C@]43C)[C@@H]12` [ACANKOREOSIDES J]?
**A.** Activity (Splenocyte [1]): 2.75 pg/mL; Activity (Splenocyte [2]): 3.78 pg/mL; Activity (Splenocyte [3]): 4.36 pg/mL; Activity (Splenocyte [4]): 15.78 pg/mL; Activity (Splenocyte [5]): 16.14 pg/mL; Activity (Splenocyte [6]): 28.27 pg/mL

**Q.** For `CC(C)[C@]1(O)CC[C@]2(C(=O)O[C@H]3O[C@@H](CO[C@H]4O[C@@H](CO)[C@H](O[C@H]5O[C@@H](C)[C@H](O)[C@@H](O)[C@H]5O)[C@@H](O)[C@@H]4O)[C@H](O)[C@@H](O)[C@@H]3O)CC[C@]3(C)[C@H](CC[C@@H]4[C@@]5(C)CC[C@@H](O)[C@@](C)(C(=O)O)[C@@H]5CC[C@]43C)[C@H]21` [ACANKOREOSIDE O], which Activity (Splenocyte [1]) is on record?
**A.** 1.81 pg/mL

**Q.** And the Activity (Splenocyte [2])?
**A.** 1.68 pg/mL

**Q.** And the Activity (Splenocyte [3])?
**A.** 2.44 pg/mL

**Q.** What about the Activity (Splenocyte [4]) of the same compound?
**A.** 13.89 pg/mL

**Q.** And the Activity (Splenocyte [5])?
**A.** 11.82 pg/mL

**Q.** What about the Activity (Splenocyte [6]) of the same compound?
**A.** 16.3 pg/mL

**Q.** Which results are given for `C=C(C)[C@@H]1CC[C@]2(C(=O)O[C@@H]3O[C@H](CO[C@@H]4O[C@H](CO)[C@@H](O[C@@H]5O[C@@H](C)[C@H](O)[C@@H](O)[C@H]5O)[C@H](O)[C@H]4O)[C@@H](O)[C@H](O)[C@H]3O)CC[C@]3(C)[C@H](CC[C@@H]4[C@@]5(C)CC[C@@H](O)[C@@](C)(C(=O)O)[C@@H]5CC[C@]43C)[C@@H]12` [ACANKOREOSIDE A]?
**A.** Activity (Splenocyte [1]): 2.89 pg/mL; Activity (Splenocyte [2]): 4.62 pg/mL; Activity (Splenocyte [3]): 4.57 pg/mL; Activity (Splenocyte [4]): 17.04 pg/mL; Activity (Splenocyte [5]): 24.87 pg/mL; Activity (Splenocyte [6]): 29.78 pg/mL

**Q.** With `C[C@@H]1O[C@H](O[C@@H]2[C@@H](O)[C@H](O)[C@@H](OC[C@@H]3O[C@H](OC(=O)[C@]45CC[C@@H]([C@](C)(O)CO)[C@@H]4[C@H]4CC[C@@H]6[C@@]7(C)CC[C@@H](O)[C@@](C)(C(=O)O)[C@@H]7CC[C@@]6(C)[C@]4(C)CC5)[C@@H](O)[C@H](O)[C@H]3O)O[C@H]2CO)[C@H](O)[C@H](O)[C@H]1O` [ACANKOREOSIDE K] as the compound, how does the Activity (Splenocyte [1]) read?
**A.** 2.78 pg/mL

**Q.** And the Activity (Splenocyte [2])?
**A.** 3.2 pg/mL

**Q.** What about the Activity (Splenocyte [3]) of the same compound?
**A.** 3.66 pg/mL

**Q.** What about the Activity (Splenocyte [4]) of the same compound?
**A.** 16.69 pg/mL

**Q.** And the Activity (Splenocyte [5])?
**A.** 20.24 pg/mL

**Q.** What about the Activity (Splenocyte [6]) of the same compound?
**A.** 21.57 pg/mL

**Q.** What does the source list for `C=C(CO)[C@@H]1CC[C@]2(C(=O)O[C@H]3O[C@@H](CO[C@H]4O[C@@H](CO)[C@H](O[C@H]5O[C@@H](C)[C@H](O)[C@@H](O)[C@H]5O)[C@@H](O)[C@@H]4O)[C@H](O)[C@@H](O)[C@@H]3O)CC[C@]3(C)[C@H](C[C@@H](O)[C@@H]4[C@@]5(C)CC[C@@H](O[C@@H]6O[C@H](CO)[C@@H](O)[C@H](O)[C@H]6O)C(C)(C)[C@@H]5CC[C@]43C)[C@@H]12` [ACANKOREOSIDE N]?
**A.** Activity (Splenocyte [1]): 1.5 pg/mL; Activity (Splenocyte [2]): 1.55 pg/mL; Activity (Splenocyte [3]): 1.92 pg/mL; Activity (Splenocyte [4]): 17.11 pg/mL; Activity (Splenocyte [5]): 13.66 pg/mL; Activity (Splenocyte [6]): 19.06 pg/mL

**Q.** Which Activity (Splenocyte [1]) does the source give for `C=C(C)[C@@H]1CC[C@]2(C(=O)O[C@@H]3O[C@H](CO[C@@H]4O[C@H](CO)[C@@H](O[C@H]5O[C@@H](C)[C@H](O)[C@@H](O)[C@H]5O)[C@H](O)[C@H]4O)[C@@H](O)[C@H](O)[C@H]3O)CC[C@]3(C)[C@H](C[C@@H](O)[C@@H]4[C@@]5(C)CC[C@@H](O)[C@@](C)(C=O)[C@@H]5CC[C@]43C)[C@@H]12` [ACANKOREOSIDE D] here?
**A.** 3.69 pg/mL

**Q.** What about the Activity (Splenocyte [2]) of the same compound?
**A.** 4.62 pg/mL

**Q.** And the Activity (Splenocyte [3])?
**A.** 5.29 pg/mL

**Q.** And the Activity (Splenocyte [4])?
**A.** 19.26 pg/mL

**Q.** What about the Activity (Splenocyte [5]) of the same compound?
**A.** 25.32 pg/mL

**Q.** What about the Activity (Splenocyte [6]) of the same compound?
**A.** 41.34 pg/mL

**Q.** For `COC(OC)[C@@H](C)[C@@H]1CC[C@]2(C(=O)O[C@H]3O[C@@H](CO[C@H]4O[C@@H](CO)[C@H](O[C@H]5O[C@@H](C)[C@H](O)[C@@H](O)[C@H]5O)[C@@H](O)[C@@H]4O)[C@H](O)[C@@H](O)[C@@H]3O)CC[C@]3(C)[C@H](CC[C@@H]4[C@@]5(C)CC[C@@H](O)[C@@](C)(C(=O)O)[C@@H]5CC[C@]43C)[C@@H]12` [ACANKOREOSIDE L], which Activity (Splenocyte [1]) is on record?
**A.** 3.53 pg/mL

**Q.** What about the Activity (Splenocyte [2]) of the same compound?
**A.** 3.71 pg/mL

**Q.** And the Activity (Splenocyte [3])?
**A.** 6.07 pg/mL

**Q.** And the Activity (Splenocyte [4])?
**A.** 20.68 pg/mL

**Q.** And the Activity (Splenocyte [5])?
**A.** 45.06 pg/mL

**Q.** What about the Activity (Splenocyte [6]) of the same compound?
**A.** 74.47 pg/mL

**Q.** With `C=C(CO)[C@@H]1CC[C@]2(C(=O)O[C@H]3O[C@@H](CO[C@H]4O[C@@H](CO)[C@H](O[C@H]5O[C@@H](C)[C@H](O)[C@@H](O)[C@H]5O)[C@@H](O)[C@@H]4O)[C@H](O)[C@@H](O)[C@@H]3O)CC[C@]3(C)[C@H](CC[C@@H]4[C@@]5(C)CC[C@@H](O)[C@@](C)(C(=O)O)[C@@H]5CC[C@]43C)[C@@H]12` [ACANKOREOSIDE F] as the compound, how does the Activity (Splenocyte [1]) read?
**A.** 3.3 pg/mL

**Q.** And the Activity (Splenocyte [2])?
**A.** 4 pg/mL

**Q.** What about the Activity (Splenocyte [3]) of the same compound?
**A.** 4.2 pg/mL

**Q.** What about the Activity (Splenocyte [4]) of the same compound?
**A.** 16.09 pg/mL

**Q.** And the Activity (Splenocyte [5])?
**A.** 23.47 pg/mL

**Q.** What about the Activity (Splenocyte [6]) of the same compound?
**A.** 27.57 pg/mL

**Q.** Which Activity (Splenocyte [1]) does the source give for `C=C(CO)[C@@H]1CC[C@]2(C(=O)O[C@H]3O[C@@H](CO[C@H]4O[C@@H](CO)[C@H](O[C@H]5O[C@@H](C)[C@H](O)[C@@H](O)[C@H]5O)[C@@H](O)[C@@H]4O)[C@H](O)[C@@H](O)[C@@H]3O)CC[C@]3(C)[C@H](C[C@@H](O)[C@@H]4[C@@]5(C)CC[C@@H](O)[C@@](C)(C=O)[C@@H]5CC[C@]43C)[C@@H]12` [ACANKOREOSIDE I] here?
**A.** 1.25 pg/mL

**Q.** And the Activity (Splenocyte [2])?
**A.** 4.18 pg/mL

**Q.** What about the Activity (Splenocyte [3]) of the same compound?
**A.** 2.59 pg/mL

**Q.** And the Activity (Splenocyte [4])?
**A.** 10.07 pg/mL

**Q.** And the Activity (Splenocyte [5])?
**A.** 12.91 pg/mL

**Q.** What about the Activity (Splenocyte [6]) of the same compound?
**A.** 14.76 pg/mL
